Data as given in patent US9700578B2, “Use of nitrite salts for the treatment of cardiovascular conditions” (The United States of America as represented by the …, priority 2003, dated 2017).

Columns and labels:
[1] = test system: hepatic ischemia-reperfusion injury; experiment: Hepatic ischemia-reperfusion (I/R) injury; assay type: in vivo, mice
Description: Carboxy-PTIO [2-(4-Carboxyphenyl)-4,4,5,5-tetramethylimidazoline-1-oxyl-3-oxide potassium salt], a direct intravascular NO scavenger, was utilized to inhibit NO dependent effects following hepatic I/R injury. Carboxy-PTIO (Alexis Biochemicals) was dissolved in phosphate buffered saline and administered intravenously at a dose of 1 mg/Kg in a volume of 50 μL at 30 minutes prior to hepatic ischemia Zinc(II) Deuteroporphyrin IX-2,4-bisethyleneglycol (ZnDBG) (Alexis Biochemicals), a heme oxygenase-1 inhibitor was injected i.p. at a dose of 10 mg/Kg in a volume of 50 μL at 30 minutes prior to the induction of hepatic ischemia.
All of the mice utilized in the present studies were C57BL6/J at 8-10 weeks of age obtained from the Jackson Laboratories (Bar Harbor, Me.). In additional experiments of hepatic I/R injury we utilized mice completely deficient (−/−) in endothelial nitric oxide synthase (eNOS). eNOS−/− mice were originally generously donated from Dr. Paul Huang (Mass. General Hospital) and generated in our breeding colony at LSU-Health Sciences Center. eNOS−/− mice were utilized at 8-10 weeks of age.
The hepatic I/R protocol is depicted in FIG. 6A and has been described previously (Hines et al., Biochem Biophys Res Commun 284:972-976, 2001; Hines et al., Am J Physiol Gastrointest Liver Physiol 284:G536-545, 2001). Mice were anesthetized with the combination of ketamine (100 mg/kg) and zylazine (8 mg/kg) and a midline laparotomy was performed to expose the liver. Mice were then injected with heparin (100 μg/kg, i.p.) to prevent blood clotting. The left lateral and median lobes of the liver were rendered ischemic by completely clamping the hepatic artery and the portal vein using microaneurysm clamps. This experimental model results in a segmental (70%) hepatic ischemia. This method of partial ischemia prevents mesenteric venous congestion by allowing portal decompression throughout the right and caudate lobes of the liver. The liver was then repositioned in the peritoneal cavity in its original location for 45 minutes. The liver was kept moist using gauze soaked in 0.9% normal saline. In addition, body temperature was maintained at 37° C. using a heat lamp and monitoring body temperature with a rectal temperature probe. Sham surgeries were identical except that hepatic blood flow was not reduced with a microaneurysm clamp. The duration of hepatic ischemia was 45 minutes in all experiments, following which the microaneurysm clamps were removed. The duration of hepatic reperfusion was 5 hours in the studies of serum liver transaminase levels (i.e., AST or ALT) and 24 hours for the studies of liver histopathology (such as hepatocellular infarction).
Serum samples were analyzed for aspartate aminotransferase (AST) and alanine aminotransferase (ALT) using a spectrophotometric method (Sigma Chemical Co., St. Louis, Mo.) (Harada et al., Proc Natl Acad Sci USA 100:739-744, 2003). These enzymes are liver specific and are released from the liver during injury (Hines et al., Biochem Biophys Res Commun 284:972-976, 2001; Hines et al., Am J Physiol Gastrointest Liver Physiol 284:G536-545, 2001). […]

[2] = test system: myocardial ischemia-reperfusion injury
Description: Briefly, mice were anesthetized with intraperitoneal injections of ketamine (50 mg/kg) and pentobarbital sodium (50 mg/kg). The animals were then attached to a surgical board with their ventral side up. […] The mice were supplemented with 100% oxygen via the ventilator side port. A median sternotomy was performed using an electric cautery and the proximal left main coronary artery was visualized and completely ligated with 7-0 silk suture mounted on a tapered needle (BV-1 ethicon). In the initial experiments of myocardial infarct size coronary occlusion was maintained for 30-minutes followed by removal of suture and reperfusion for 24 hours. […] In these experiments, two-dimensional echocardiography was performed at baseline and again at 48 hours of reperfusion.
At 24 hours of reperfusion, the mice were anesthetized as described previously, intubated, and connected to a rodent ventilator. A catheter (PE-10 tubing) was placed in the common carotid artery to allow for Evans Blue dye injection. A median sternotomy was performed and the left main coronary artery was re-ligated in the same location as before Evans Blue dye (1.2 mL of a 2.0% solution, Sigma Chemical Co.) was injected into the carotid artery catheter into the heart to delineate the ischemic zone from the nonischemic zone. The heart was rapidly excised and serially sectioned along the long axis in five, 1 mm thick sections that were then incubated in 1.0% 2,3,5-triphenyltetrazolium chloride (Sigma Chemical Co.) for 5 minutes at 37° C. to demarcate the viable and nonviable myocardium within the risk zone.
Ventricular parameters were measured using leading-edge technique. M-mode (sweep speed=200 mm/sec) echocardiograms were captured from parasternal, short and long-axis 2D views of the left ventricle (LV) at the mid-papillary level. LV percent fractional shortening (FS) was calculated according to the following equation: LV % FS=((LVEDD−LVESD)/LVEDD)×100. All data were calculated from 10 cardiac cycles per experiment.

[3] = test system: U46619-induced normoxic pulmonary hypertension; assay type: in vivo; details: normoxic, U46619 infusion, nebulized nitrite, n=6
[4] = test system: right middle cerebral artery vasospasm
Description: An autologous arterial blood clot was placed around the right middle cerebral artery (R MCA) of 14 anesthetized Cynomolgus monkeys at day 0. […] Cerebral arteriogram was performed before clot placement and on days 7 and 14, for assessment of DCV. Arteriographic vasospasm was defined as a 25% or greater reduction in the proximal 14 mm of the R MCA area as measured on the AP projection of the cerebral arteriogram (blinded assessment). Mean arterial blood pressure was measured and blood samples were collected daily from day 0; the cerebral spinal fluid samples were collected on day 0, 7, and 14.

hemoglobin = hemoglobin (Homo sapiens, UniProt P68871+P69905)
[5] = 48 nmoles of nitrite, n=3; before 594±83
aortic ring preparations = details: cited from earlier work
forearm circulation = details: concentrations of 200 μM in the forearm, Lauer et al.; cited from earlier work
[6] = 48 nmoles into left ventricular cavity 5 min prior to reperfusion, versus 48 nmoles nitrate
[7] = 45 minutes ischemia, 48 hours reperfusion
[8] = 200 μM regional concentration, transit time less than 10 seconds

In the case of O=NO [sodium nitrite], the “calculated blood level at which a protective effect was observed” value ([1]; 1.2 nmoles added nitrite) is reported as 600 nM, the “calculated systemic concentration of peak effect on AST and ALT” value ([1]; 48 nmoles added nitrite, 2 mL blood volume) is reported as 24 µM and the “hepatocellular injury (histopathology) at 24 hours of reperfusion” value ([1]; 24 μM (48 nmoles), versus saline and nitrate treated animals) is reported as “significantly reduced”. The “hepatocellular apoptosis (TUNEL)” value ([1]; 45 minutes ischemia, 24 hours reperfusion) was “significantly (p<0.001) attenuated”, the “tissue injury in mice pre-treated with ZnDPBG (serum AST)” value ([1]; heme oxygenase 1 inhibitor pre-treatment, nitrite 24 μM) was “significantly limited tissue injury” and the “near-physiological nitrite concentration with highly significant protective effects” value ([1]; hepatic I/R) was 0.6 μM. The “serum elevations of liver transaminases AST and ALT” value ([1]; intraperitoneal during hepatic ischemia, 45 min ischemia, 5 h reperfusion, nitrite 1.2-480 nmoles, nitrate 48 nmoles) was “dose-dependently limited”, the “cytoprotection in eNOS deficient mice (serum AST)” value ([1]; mouse, in vivo) was “significant nitrite cytoprotection” and the “reduction of myocardial infarct size per area-at-risk” value [2, 6] was 67%. For the same molecule, the “reduction of myocardial infarct size per left ventricle” value [2, 6] was 67%, the “left ventricular fractional shortening versus vehicle group” value [2, 7] was “significantly (p<0.02) greater” and the “myocardial ejection fraction versus baseline” value [2, 7] was “remained essentially unchanged”. For the same molecule, the “decrease in pulmonary artery pressure from infusion baseline” value [3] was 23±6%, the “blood levels of nitrite” value ([4]; 45 mg/kg and 60 mg/kg per day) was 10 to 60 µM and the “increases in blood methemoglobin concentrations” value ([4]; 45 mg/kg and 60 mg/kg per day) was ≤ 2%. For the same molecule, the methemoglobin formation ([4]; 45 mg/kg and 60 mg/kg per day) was < 5%, the “mean reduction in the R MCA area on day 7 after SAH” value ([4]; 45 mg/kg and 60 mg/kg per day i.v. for 14 days, saline 45±5) was 8±9% and the systemic hypotension ([4]; 14 days infusion) was “without systemic hypotension”. For the same molecule, the toxicity ([4]; 14 days infusion) was “no clinical or pathological evidence of nitrite toxicity”, the “development of significant vasospasm” value ([4]; nitrite infused animals, n=6) was “no animals developed significant vasospasm” and the “iron-nitrosylated-hemoglobin in the ipsilateral antecubital vein during nitrite infusion” value (hemoglobin; 36 μmol/min, at rest, baseline 55.7±11.4) was 693.4 ± 216.9 nM. The “SNO-Hb produced across the forearm during exercise” value (hemoglobin; [8]) was ~200 nM, the “iron-nitrosyl-hemoglobin produced across the forearm during exercise” value (hemoglobin; [8]) was “approximately 750 nM” and the “blood nitrite level after treatment” value [5] was 727 ± 40 nM. For the same molecule, the “nitrite concentration that stimulated vasodilation of aortic ring preparations” value (aortic ring preparations; Furchgott et al. 1953) was 100 µM, the “levels of nitrite shown to vasodilate in vitro” value (aortic ring preparations; literature) was > 100,000 nM and the “vasodilatory effect in human forearm” value (forearm circulation) was “no vasodilatory effects”.
